Assay results published in patent publication US20070264674A1, “Cytochrome P450 Induction Assay” (priority 2004, published 2007).

Legend:
[1] = tested on: endogenous rat CAR or PXR; assay: Primary rat hepatocytes transfected with clone 102-SEAP and pUC19 (control, no nuclear receptor); conditions: clone 102-SEAP + pUC19, 10 μM Rifampicin, 1 μM CITCO, 1 mM Phenobarbital, 48 h
Protocol: (§1) After four hours, cell culture medium was changed with 1 mL Williams E medium containing Pen/Strep, glutamine and ITS+Premix and the cells were incubated overnight under normal growth condition.
(§2) This was followed by adding 3.2 μL Enhancer and mixing by vortexing for 1 second. […] The cotransfections were followed by adding 3.2 μL Enhancer and mixing by vortexing for 1 second. The transfections/cotransfections were incubated at room temperature for 5 minutes. Then, the mixtures were centrifuged for a few seconds to remove drops from the top of the tube. Next, to each of the mixtures, five μL of Effectene Transfection Reagent was added and the mixtures mixed by vortexing for 10 seconds. The mixtures were then incubated for ten minutes at room temperature to allow transfection complex formation.
(§3) Meanwhile, the growth medium for each of the wells of the 24-well plate containing the cells was removed from the wells and the cells in the wells washed once with 1 mL of growth medium. Then, 350 μL of fresh growth medium was added to each of the wells and 350 μL of growth medium was added to each of the tubes of transfection complexes, which were then mixed and immediately added drop-wise onto the cells in the well. The plates were gently swirled to ensure uniform distribution of the transfection complexes over the cells. […]

[2] = biological target: T1, hPXR (Homo sapiens, UniProt O75469); assay: Primary rat hepatocytes cotransfected with clone 102-SEAP and hPXR; conditions: 10 μM Rifampicin, 1 μM CITCO, 1 mM Phenobarbital, 48 h
T1 sequence (O75469 1-434): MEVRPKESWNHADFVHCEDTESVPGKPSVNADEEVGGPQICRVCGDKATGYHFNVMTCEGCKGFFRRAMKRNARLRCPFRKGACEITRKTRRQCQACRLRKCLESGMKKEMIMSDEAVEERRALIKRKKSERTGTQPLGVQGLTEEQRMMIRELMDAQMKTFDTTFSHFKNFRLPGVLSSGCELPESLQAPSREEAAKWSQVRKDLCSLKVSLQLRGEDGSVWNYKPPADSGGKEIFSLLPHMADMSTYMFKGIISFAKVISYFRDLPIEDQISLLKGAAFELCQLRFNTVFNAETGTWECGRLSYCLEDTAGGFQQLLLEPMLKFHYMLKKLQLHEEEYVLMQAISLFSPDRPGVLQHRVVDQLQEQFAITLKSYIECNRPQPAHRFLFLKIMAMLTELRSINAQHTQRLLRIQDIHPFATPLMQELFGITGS
Protocol: as §1, §2, §3

[3] = biological target: T2, hCAR (Homo sapiens, UniProt Q14994); assay: SEAP reporter assay in HepG2 cells co-transfected with human CAR; assay type: cell-based; parameters: A 1047 bp nucleic acid encoding the human CAR (hCAR) obtained from the RT-PCR; expressed in transfected cells; host or cells: HepG2 (transient co-transfection with the reporter plasmid); conditions: HepG2 + human CAR (constitutive activation); 48 h; 200 μM Omeprazole, 6 μM Clotrimazole, 125 nM Hyperforin, 12.5 μM Lovastatin, 100 μM N-propyl-p-hydroxy-benzoate
T2 sequence (Q14994 1-348 isoform Q14994-2): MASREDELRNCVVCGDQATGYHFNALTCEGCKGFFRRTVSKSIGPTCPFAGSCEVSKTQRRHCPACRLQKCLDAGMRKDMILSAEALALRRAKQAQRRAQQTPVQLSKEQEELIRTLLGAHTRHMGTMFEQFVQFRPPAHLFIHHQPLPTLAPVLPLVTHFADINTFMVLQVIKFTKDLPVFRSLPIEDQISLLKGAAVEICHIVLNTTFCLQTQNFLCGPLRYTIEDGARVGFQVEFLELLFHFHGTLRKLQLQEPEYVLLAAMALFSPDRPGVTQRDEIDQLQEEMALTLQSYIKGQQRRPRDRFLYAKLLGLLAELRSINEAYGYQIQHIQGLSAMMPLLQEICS
Protocol: The NR donor plasmid encoding the human CAR was made as follows. The human CAR was made by RT-PCR from a human liver mRNA preparation. […] The RT-PCR conditions were 15 seconds at 94° C., 30 cycles of 94° C. for 30 seconds followed by 68° C. for 3 minutes, then 68° C. for 3 minutes, and storage at 4° C.
Controls omitted the DNA encoding the human CAR. Additional controls consisted of DNA encoding the human PXR of the previous example.
After incubating the cells 48 hours at 37° C., the medium form wells were collected for SEAP assays. The assays for SEAP expression were performed with Tropix Phospha-Light system kit.

[4] = biological target: T2, hCAR; assay: Primary rat hepatocytes cotransfected with clone 102-SEAP and hCAR; assay type: cell-based; parameters: expressed in transfected cells; host or cells: primary rat hepatocytes (transient co-transfection, Effectene); conditions: 10 μM Rifampicin, 1 μM CITCO, 1 mM Phenobarbital, 48 h
Protocol: as §1, §2, §3

Structure (SMILES) | effect on transcription from clone 102-SEAP composite promoter [3] | effect on transcription from ΔCYP3A4 promoter [3] | also measured
CCC1(c2ccccc2)C(=O)NC(=O)NC1=O [Phenobarbital] | – | – | induction of clone 102-SEAP without co-transfected nuclear receptor [1]: no response; induction of clone 102-SEAP expression via hPXR [2]: about 3.4 fold
CC[C@H](C)C(=O)O[C@H]1C[C@@H](C)C=C2C=C[C@H](C)[C@H](CC[C@@H]3C[C@@H](O)CC(=O)O3)[C@H]21 [Lovastatin] | not affected | – | –
Clc1ccc(-c2nc3sccn3c2C=NOCc2ccc(Cl)c(Cl)c2)cc1 [CITCO, 6-(4-Chlorophenyl)imidazo[2,1-b][1,3]thiazole-5-carbaldehyde O-(3,4-dichlorobenzyl)oxime] | – | – | induction of clone 102-SEAP expression via hCAR [4]: about 4.2 fold
CCCOC(=O)c1ccc(O)cc1 [N-propyl-p-hydroxy-benzoate] | not affected | moderate inhibition | –
Clc1ccccc1C(c1ccccc1)(c1ccccc1)n1ccnc1 [Clotrimazole] | inhibitory effect | inhibitory effect | –
